The results in this text go back to US10426806B1, “Anti-obesity effect of Borago officinalis linn. extracts to prevent and treat metabolic disorders” (priority 2018, dated 2019).

Holding throughout (assay type): in vivo, Wistar rats
In one data set the test system is high fat diet rats. Nature of the data set: Preventive study: high fat diet rats given extract or standard drug for 8 weeks. The settings on record: for Average Food intake / Average body weight / Cholestrol / HDL / LDL / Tri-glyceride / VLDL: 8 weeks preventive study; for FBG (fasting blood glucose level): preventive study; for Cholestrol / HDL / LDL / Tri-glyceride / VLDL: serum. As for the experimental part: (§1) Thirty male Wistar rats (210-220 g) were obtained from the animal house facility of Dr. Panjwani Center for Molecular Medicine and Drug Research (ICCBS). All animals were kept under standard conditions of temperature and humidity with a 12 h light/dark cycle. This study was approved by the Ethical Committee of International Center for Chemical and Biological Sciences (Protocol #: 2015-0011). After one week of acclimation period, rats were randomly divided into two groups. The control group was fed with normal diet (D12450B, Research Diets, USA), whereas the other groups were fed with high-fat diet (D12451, Research Diets, USA) for a period of 16-week. After 10 weeks, biochemical parameters were evaluated regularly to establish whether the model has developed the symptoms of weight gain and metabolic syndrome.
After a period of 16 weeks, the group of rats on high fat diet (HF) have developed symptoms of metabolic disorders, along with insulin resistance. The HF fed rats were then sub-divided into […] groups of three rats each, i.e. Group 1 (PA), Control; animals in this group received LFD, and distilled water. Group 2, Pathological control (PC); animals in this group received HFD, and distilled water. Group 3 (PO); animals in this group received HFD, and standard drug Orlistat (100 mg/kg/day). Group 4 (PS); animals in this group received HFD, and standard drug Sibutramine (5 mg/kg/day). Group 5 (PC1); animals in this group received HFD, and B. officinalis extract (150 mg/kg/day). Group 6 (PC2); animals in this group received HFD, and B. officinalis extract (300 mg/kg/day).
Body weights were recorded weekly throughout the experiment. The food intake was calculated by using following formula, as described by Ghezzi et al, 2012:
[…] Liver and pancreas samples were prepared and stained with hematoxylin and eosin; the liver was excised and fixed in buffered formalin. The sectioned liver tissue segments were stained with hematoxylin-eosin (H-E), and observed under light microscope.
(§2) Blood glucose, serum insulin, total cholesterol, triglycerides, HDL, LDL, very low density lipoproteins […], urea, creatinine, aspartate aminotransferase […], alkaline phosphatase (ALP), serum glutamic pyruvic transaminase (SGPT), and direct and total bilirubin were estimated. Fasting blood glucose levels were measured using glucometer (AccuChek Performa, Australia). Fasting insulin levels were quantified using ultra sensitive rat insulin ELISA kit (Crystal Chem, Downers Grove, USA). Insulin sensitivity was evaluated using Homeostatic Model Assessment (HOMA). Serum total cholesterol, triglycerides, HDL, LDL, VLDL, urea, creatinine, AST, ALP, SGPT, and direct and total bilirubin were analyzed using automatic analyzer (Hitachi, Roche Diagnostics 902, Tokyo, Japan).

Data set [1] concerns high-fat diet induced-obese rats. Nature of the data set: Therapeutic study: high-fat diet induced-obese rats treated for 12 weeks. The settings on record: for Average Food intake / Average body weight / FBG (fasting blood glucose level) / Cholesterol / HDL / LDL / Triglycerides / VLDL: obese rats, 12 weeks of treatment; for Average food intake of rats: TO, TS, TC1 and TC2 treated groups, 12 weeks, HFD; for Cholesterol / HDL / LDL / Triglycerides / VLDL: serum. As for the experimental part:
as §1
(§3) Whereas for therapeutic studies the animal groups were further sub-divided into following groups which are as follow: Group 1 (TA), Control; animals in this group received LFD, and distilled water. Group 2 (TC), Pathological control; animals in this group received HFD, and distilled water. Groups 3 (TO), High fat diet induced obese animals in this group received standard drug Orlistat (100 mg/kg/day). Group 4 (TS): High fat diet induced obese animals in this group received standard drug Sibutramine (5 mg/kg/day). Group 5 (TC1): High fat diet induced obese animals in this group received B. officinalis extract (150 mg/kg/day). Group 6 (TC2): High fat diet induced obese animals in this group received B. officinalis extract (300 mg/kg/day).
Body weights were recorded weekly throughout the experiment. The food intake was calculated by using following formula, as described by Ghezzi et al, 2012: […]
(§4) For biochemical analysis after 16 weeks of experimental diet, the blood samples were taken from the tail vein after an overnight fast, whereas after 12 weeks of treatment period, rats were subjected to anesthesia, and blood was drawn by cardiac puncture. Liver and pancreas samples were prepared and stained with hematoxylin and eosin; the liver was excised and fixed in buffered formalin. The sectioned liver tissue segments were stained with hematoxylin-eosin (H-E), and observed under light microscope.
as §2
In therapeutic study, we investigated the capacity of B. officinalis extracts to reduce the weight of high fat diet induced obese rats, and to improve the key biochemical parameters in metabolic disorders.
Obese rats were treated with Borago officinalis extracts, at two different doses i.e. 150 mg/kg, and 300 mg/kg of body weight for 12 weeks. During these 12 weeks they were also fed HFD.

For data set [2] the test system is unchanged. Briefly: Evaluation of renal and liver toxicity after 12 weeks of treatment (therapeutic study). The settings on record: 5 mg/kg (TS). As for the experimental part:
as §3, §4, §2
Evaluation of Renal and Liver Toxicity of Borago officinalis Extract

For `CCCCCCCCCCC[C@@H](C[C@@H]1OC(=O)[C@H]1CCCCCC)OC(=O)[C@H](CC(C)C)NC=O` [Orlistat], in the data set on high fat diet rats (100 mg/kg (PO)), the “Average Food intake” value came out at 4.23 g/100 g, the Average body weight amounted to 256 ± 0.10 g, the “FBG (fasting blood glucose level)” value is reported as 79 ± 1.04 mg/dL and the Cholestrol is on record as 68 ± 3.66 mg/dL. Also, in the data set on high fat diet rats (100 mg/kg (PO)), the HDL is given as 52 ± 3.04 mg/dL, the LDL is reported as 15 ± 0.41 mg/dL, the Tri-glyceride is 52 ± 0.16 mg/dL and the VLDL is on record as 9 ± 0.87 mg/dL. In data set [1] (100 mg/kg (TO)), the “Average Food intake” value is listed as 3.18 g/100 g, the “Average body weight” value was determined as 356 ± 4.63 g, the “FBG (fasting blood glucose level)” value is listed as 84 ± 0.17 mg/dL and the Cholesterol came out at 68 ± 3.66 mg/dL. In data set [1] (100 mg/kg (TO)), this compound returned an HDL of 52 ± 3.04 mg/dL, an LDL of 15 ± 0.41 mg/dL, a Triglycerides of 52 ± 0.16 mg/dL and a VLDL of 9 ± 0.87 mg/dL. The “Average food intake of rats” value in data set [1] was “decrease”.
In data set [2], `CC(C)CC(N(C)C)C1(c2ccc(Cl)cc2)CCC1` (stereo not shown) [Sibutramine] gave an ALP of 116 ± 0.14 U/L, an ALT of 85 ± 0.009 U/L, a Creatinine of 0.49 ± 0.02 mg/dL and an SGPT of 38 ± 3.34 U/L. In data set [2], the “Total Bilirubin” value turned out to be 0.15 ± 0.01 mg/dL and the Urea is 31 ± 2.42 mg/dL. Further, in the data set with high fat diet rats (5 mg/kg (PS)), the “Average Food intake” value was 5.34 g/100 g, the Average body weight came to 251 ± 0.11 g, the “FBG (fasting blood glucose level)” value is on record as 76 ± 2.12 mg/dL and the Cholestrol was 65 ± 0.13 mg/dL. In the data set with high fat diet rats (5 mg/kg (PS)), this compound gave an HDL of 59 ± 0.16 mg/dL, an LDL of 14 ± 0.68 mg/dL, a Tri-glyceride of 51 ± 0.19 mg/dL and a VLDL of 9 ± 0.8 mg/dL. In data set [1] (5 mg/kg (TS)), the “Average Food intake” value was 4.20 g/100 g, the “Average body weight” value came to 361 ± 6.43 g, the “FBG (fasting blood glucose level)” value was found to be 80 ± 0.12 mg/dL and the Cholesterol is recorded as 65 ± 0.13 mg/dL. In data set [1] (5 mg/kg (TS)), this compound yielded an HDL of 59 ± 0.16 mg/dL, an LDL of 14 ± 0.68 mg/dL, a Triglycerides of 51 ± 0.19 mg/dL and a VLDL of 9 ± 0.8 mg/dL. In data set [1], the “Average food intake of rats” value is listed as “decrease”.
